Reference: article PMC11061419, “Identification of novel small molecule inhibitors of twin arginine translocation (Tat) pathway and their effect on the control of Campylobacter jejuni in chickens” (Frontiers in Microbiology, 2024)
Converted amounts (≈) assume the structure as drawn.

Experiments:
[1] = system: FDH; details: 1 mM of azide; ref Davies, 2017; cited from earlier work
[2] = system: C. jejuni Au-47; experiment: Copper sulfate sensitivity dose–response assay in vitro (MIC/MBC); type: cell-based; details: Campylobacter jejuni; for MIC: AU47, read-out: MIC, Au-47 (Table S4); for MBC: AU47, 0.5 mM CuSO4, read-out: MBC, Au-47 (Table S5)
Description: (§1) Campylobacter jejuni 81–176 was the primary model strain used for the selection of the potential Tat-dependent inhibitors by high-throughput screening. C. jejuni 81–176 is resistant to 0.5 and 1 mM CuSO4 (Supplementary Figure S1). C. jejuni 81–176 tatC knockout mutant (C. jejuni ΔtatC) was used to confirm the Tat-dependent inhibitory effect of the selected SM. C. jejuni ΔtatC is susceptible to 0.5 mM and higher of CuSO4 ([Rajashekara et al., 2009]). The specificity of the Tat-dependent inhibitors was also tested on 11 additional Campylobacter strains (C. coli ATCC33559 and 10 other C. jejuni strains isolated from chickens) and 7 commensal/beneficial bacteria (Supplementary Table S1). The […] (Au-13, Au-20, Au-38, Au-39, Au-47, Au-50, Au-24, Au-32, Au-44, and Au-45) were selected based on their single nucleotide polymorphism (SNP)-type and percent of prevalence in chickens ([Merchant-Patel et al., 2008]; [Kumar et al., 2016]). Additional details about the bacterial strains are shown in Supplementary Table S1.
(§2) In total, 19 SMs were two-fold serially diluted to obtain a final SM concentration ranging from 6.25 to 0.012 μg/mL. C. jejuni 81–176 was then treated with a determined concentration of SM, as described in the copper sensitivity assay. […] The lowest bactericidal SM concentration was considered the MBC (no increase in OD600 over time and no viable cells were recovered on agar plate after challenge) (N = 3 replicates per SM). […] However, these SMs were two-fold serially diluted to obtain a final SM concentration ranging from 5 μg to 0.0625 μg for testing (N = two independent experiments with four technical replicate for each SM).

[3] = system: C. jejuni Au-13; experiment: as above; type: cell-based; details: Campylobacter jejuni; for MIC: AU13, read-out: MIC, Au-13 (Table S4); for MBC: AU13, 0.5 mM CuSO4, read-out: MBC, Au-13 (Table S5)
Description: as §1, §2

[4] = system: C. jejuni Au-44; experiment: as above; type: cell-based; details: Campylobacter jejuni; for MIC: AU44, read-out: MIC, Au-44 (Table S4); for MBC: AU44, 0.5 mM CuSO4, read-out: MBC, Au-44 (Table S5)
Description: as §1, §2

[5] = system: C. jejuni Au-39; experiment: as above; type: cell-based; details: Campylobacter jejuni; for MIC: AU39, read-out: MIC, Au-39 (Table S4); for MBC: AU39, 0.5 mM CuSO4, read-out: MBC, Au-39 (Table S5)
Description: as §1, §2

[6] = system: C. coli ATCC33559; experiment: as above; type: cell-based; details: Campylobacter coli; for MIC: ATCC33559, read-out: MIC, C. coli (Table S4); for MBC: ATCC33559, 0.5 mM CuSO4, read-out: MBC, C. coli (Table S5)
Description: as §1, §2

[7] = system: C. jejuni Au-38; experiment: as above; type: cell-based; details: Campylobacter jejuni; for MIC: AU38, read-out: MIC, Au-38 (Table S4); for MBC: AU38, 0.5 mM CuSO4, read-out: MBC, Au-38 (Table S5)
Description: as §1, §2

[8] = system: C. jejuni Au-24; experiment: as above; type: cell-based; details: Campylobacter jejuni; for MIC: AU24, read-out: MIC, Au-24 (Table S4); for MBC: AU24, 0.5 mM CuSO4, read-out: MBC, Au-24 (Table S5)
Description: as §1, §2

[9] = system: C. jejuni Au-32; experiment: as above; type: cell-based; details: Campylobacter jejuni; for MIC: AU32, read-out: MIC, Au-32 (Table S4); for MBC: AU32, 0.5 mM CuSO4, read-out: MBC, Au-32 (Table S5)
Description: as §1, §2

[10] = system: C. jejuni Au-50; experiment: as above; type: cell-based; details: Campylobacter jejuni; for MIC: AU50, read-out: MIC, Au-50 (Table S4); for MBC: AU50, 0.5 mM CuSO4, read-out: MBC, Au-50 (Table S5)
Description: as §1, §2

[11] = system: C. jejuni Au-20; experiment: as above; type: cell-based; details: Campylobacter jejuni; for MIC: AU20, read-out: MIC, Au-20 (Table S4); for MBC: AU20, 0.5 mM CuSO4, read-out: MBC, Au-20 (Table S5)
Description: as §1, §2

[12] = system: C. jejuni Au-45; experiment: as above; type: cell-based; details: Campylobacter jejuni; for MIC: AU45, read-out: MIC, Au-45 (Table S4); for MBC: AU45, 0.5 mM CuSO4, read-out: MBC, Au-45 (Table S5)
Description: as §1, §2

[13] = system: C. jejuni 81–176; experiment: as above; type: cell-based, Campylobacter jejuni; details: for MBC / MIC: Campylobacter jejuni, 0.5 mM CuSO4, head displaced; for MBC: read-out: MBC, C. jejuni (Table S5); for MIC: read-out: MIC, C. jejuni (Table S4); for C. jejuni 81–176 in vitro MBC: minimal bactericidal concentration in presence of 0.5 mM CuSO4; for C. jejuni 81–176 in vitro MIC: minimal bacteriostatic concentration in presence of 0.5 mM CuSO4
Description: as §2

[14] = system: Campylobacter spp. (12 strains); experiment: Activity spectrum against Campylobacter strains at 6.25 μg/mL with 0.5 mM CuSO4; type: cell-based, Campylobacter jejuni, Campylobacter coli; details: 6.25 μg/mL SM
[15] = system: Commensal/beneficial gut bacteria (n = 7); experiment: Activity spectrum against commensal/beneficial gut bacteria at 6.25 μg/mL; type: cell-based; details: 6.25 μg/mL SM
Description: A similar experiment was performed with seven commensal/beneficial gut bacteria to determine species specificity of these SMs. In brief, an overnight suspension was normalized at 0.05 OD600 using the appropriate medium and challenged with 6.25 μg/mL of SM. Details about the strains and their growing conditions are shown in Supplementary Table S1. Medium alone and 1% DMSO were used as controls (N = 3 replicates per SM).

| Structure (SMILES) | MIC [2] | MBC [2] | MIC [3] | MBC [3] | MIC [4] | MBC [4] | MIC [5] | MBC [5] | MIC [6] | MBC [6] | MIC [7] | MBC [7] | MIC [8] | MBC [8] | MIC [9] | MBC [9] | MIC [10] | MBC [10] | MIC [11] | MBC [11] | also measured |
| --- | --- | --- | --- | --- | --- | --- | --- | --- | --- | --- | --- | --- | --- | --- | --- | --- | --- | --- | --- | --- | --- |
| [N-]=[N+]=[N-] [azide] |  |  |  |  |  |  |  |  |  |  |  |  |  |  |  |  |  |  |  |  | inhibition of FDH activity [1]: 30% |
| CC(C)n1c(S)nc2c1c(=O)[nH]c(=O)n2C [T6] | 1.25 µg/mL (≈ 5.2 µM) | 2.5 µg/mL (≈ 10.4 µM) | 1.25 µg/mL (≈ 5.2 µM) | 2.5 µg/mL (≈ 10.4 µM) | 1.25 µg/mL (≈ 5.2 µM) | 2.5 µg/mL (≈ 10.4 µM) | 1.25 µg/mL (≈ 5.2 µM) | 2.5 µg/mL (≈ 10.4 µM) | 1.25 µg/mL (≈ 5.2 µM) | 2.5 µg/mL (≈ 10.4 µM) | 1.25 µg/mL (≈ 5.2 µM) | 2.5 µg/mL (≈ 10.4 µM) | 1.25 µg/mL (≈ 5.2 µM) | 2.5 µg/mL (≈ 10.4 µM) | 1.25 µg/mL (≈ 5.2 µM) | 2.5 µg/mL (≈ 10.4 µM) | 1.25 µg/mL (≈ 5.2 µM) | 2.5 µg/mL (≈ 10.4 µM) | 1.25 µg/mL (≈ 5.2 µM) | 2.5 µg/mL (≈ 10.4 µM) | MIC [12]: 1.25 µg/mL (≈ 5.2 µM); MBC [12]: 2.5 µg/mL (≈ 10.4 µM); MBC [13]: 2.5 µg/mL (≈ 10.4 µM); MIC [13]: 1.25 µg/mL (≈ 5.2 µM); C. jejuni 81–176 in vitro MBC [13]: 2.5 µg/mL; C. jejuni 81–176 in vitro MIC [13]: 1.25 µg/mL; Growth inhibition at 6.25 μg/mL, Campylobacter spp. (strains inhibited/tested) [14]: 12/12; Growth inhibition at 6.25 μg/mL, Commensal/beneficial gut bacteria (strains inhibited/tested) [15]: 0/7 |
| CCOC(=O)C1CCN(CC(=O)Nc2cccc3cccnc23)CC1 [T5] | 2.5 µg/mL (≈ 7.32 µM) | 5 µg/mL (≈ 14.6 µM) | 0.62 µg/mL (≈ 1.82 µM) | 1.24 µg/mL (≈ 3.63 µM) | 2.5 µg/mL (≈ 7.32 µM) | 5 µg/mL (≈ 14.6 µM) | 5 µg/mL (≈ 14.6 µM) | > 5 µg/mL | 0.02 µg/mL (≈ 0.0586 µM) | 0.04 µg/mL (≈ 0.117 µM) | 2.5 µg/mL (≈ 7.32 µM) | 5 µg/mL (≈ 14.6 µM) | 2.5 µg/mL (≈ 7.32 µM) | 5 µg/mL (≈ 14.6 µM) | 5 µg/mL (≈ 14.6 µM) | > 5 µg/mL | 5 µg/mL (≈ 14.6 µM) | > 5 µg/mL | 2.5 µg/mL (≈ 7.32 µM) | 5 µg/mL (≈ 14.6 µM) | MIC [12]: 5 µg/mL (≈ 14.6 µM); MBC [12]: > 5 µg/mL; MBC [13]: 0.04 µg/mL (≈ 0.117 µM); MIC [13]: 0.01 µg/mL (≈ 0.0293 µM); C. jejuni 81–176 in vitro MBC [13]: 0.04 µg/mL; C. jejuni 81–176 in vitro MIC [13]: 0.01 µg/mL; Growth inhibition at 6.25 μg/mL, Campylobacter spp. (strains inhibited/tested) [14]: 12/12; Growth inhibition at 6.25 μg/mL, Commensal/beneficial gut bacteria (strains inhibited/tested) [15]: 1/7; Commensal/beneficial gut bacteria inhibited at 6.25 μg/mL (species) ([15]; Ef Enterococcus faecalis, Lb Levilactobacillus brevis, LGG Lacticaseibacillus rhamnosus GG): Ef |
